Laboratory results as given in patent US20140135310A1, “SULPHONAMIDE DERIVATIVES OF ALICYCLIC AMINES FOR THE TREATMENT OF CENTRAL NERVOUS SYSTEM DISEASES” (Adamed Sp. z o.o., priority 2011, published 2014).

Key:
[1] = tested on: α1 adrenergic receptors (rat cerebral cortex); assay: Radioligand binding assay, adrenergic α1 receptors; conditions: test compound 1×10^−6 M
Description: The specific ligand binding to the receptors is defined as the difference between the total binding and the non-specific binding determined in the presence of the excess of unlabelled ligand.
The results are expressed as a percent of control specific binding ((measured specific binding/control specific binding)×100) and as a percent inhibition of control specific binding (100−((measured specific binding/control specific binding)×100)) obtained in the presence of the test compounds. The specific ligand binding to the receptors is defined as the difference between the total binding and the nonspecific binding determined in the presence of an excess of unlabelled ligand. Scintillation counting was the method of detection of ligand binding. The IC50 values (concentration causing a half-maximal inhibition of control specific binding) were determined by non-linear regression analysis of the competition curves generated with mean replicate values using Hill equation curve fitting (Y=D+[(A−D)/(1+(C/C50)nH)], where Y=specific binding, D=minimum specific binding, A=maximum specific binding, C=compound concentration, C50=IC50, and nH=slope factor). […] The inhibition constants (Ki) were calculated using the Cheng Prusoff equation (Ki=IC50/(1+(L/KD)), where L=concentration of radioligand in the assay, and KD=affinity of the radioligand for the receptor). A scatchard plot was used to determine the Kd.

[2] = target: dopaminergic receptors D3 (Homo sapiens, UniProt P35462); assay: Radioligand binding assay, dopaminergic D3 receptors; conditions: test compound 1×10^−6 M
dopaminergic receptors D3, sequence (P35462 whole entry): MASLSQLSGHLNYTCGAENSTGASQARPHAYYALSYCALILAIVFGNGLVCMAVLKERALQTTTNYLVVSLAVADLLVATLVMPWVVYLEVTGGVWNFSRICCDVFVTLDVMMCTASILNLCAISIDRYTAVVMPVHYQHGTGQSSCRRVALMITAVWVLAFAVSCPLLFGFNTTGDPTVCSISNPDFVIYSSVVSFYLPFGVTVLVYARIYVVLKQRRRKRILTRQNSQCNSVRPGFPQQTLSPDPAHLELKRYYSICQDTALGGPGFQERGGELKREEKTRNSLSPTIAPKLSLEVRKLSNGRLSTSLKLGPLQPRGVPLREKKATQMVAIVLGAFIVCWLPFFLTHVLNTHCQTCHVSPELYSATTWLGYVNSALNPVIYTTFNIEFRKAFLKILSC
Outline: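 Competition radioligand binding at human D2, D3 and D4.4 receptors, detected by scintillation counting; nonspecific binding defined with excess unlabelled ligand. Results as percent inhibition of control specific binding; IC50 by Hill-equation nonlinear regression; Ki via Cheng-Prusoff, with radioligand KD from Scatchard plot.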

[3] = target: T1, 5-HT1A receptor (rat hippocampus) (Rattus norvegicus, UniProt P19327); assay: Radioligand binding assay, serotoninergic 5-HT1A receptors; conditions: binding assay result in %, Table 5a;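 note: test compound at 1 µM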
T1 construct: hippocampus; from tissue; host or cells: rat hippocampus
T1 sequence (P19327 1-422): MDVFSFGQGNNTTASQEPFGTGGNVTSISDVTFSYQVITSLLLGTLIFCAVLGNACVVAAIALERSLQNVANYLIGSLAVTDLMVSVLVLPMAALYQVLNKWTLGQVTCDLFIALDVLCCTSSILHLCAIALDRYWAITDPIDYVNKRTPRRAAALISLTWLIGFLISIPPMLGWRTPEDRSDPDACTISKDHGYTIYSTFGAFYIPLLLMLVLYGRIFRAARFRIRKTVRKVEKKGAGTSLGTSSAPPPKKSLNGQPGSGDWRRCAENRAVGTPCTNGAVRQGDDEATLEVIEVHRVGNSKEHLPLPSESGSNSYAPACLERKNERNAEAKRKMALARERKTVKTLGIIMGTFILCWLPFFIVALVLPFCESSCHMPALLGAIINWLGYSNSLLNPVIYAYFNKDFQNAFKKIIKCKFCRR

5-HT2A receptor = target: T2, 5-HT2A receptor (Homo sapiens, UniProt P28223); assay: Radioligand binding assay, serotoninergic 5-HT2A receptors; conditions: binding assay result in %, Table 5a
T2 construct: purchased PerkinElmer
T2 sequence (P28223 whole entry): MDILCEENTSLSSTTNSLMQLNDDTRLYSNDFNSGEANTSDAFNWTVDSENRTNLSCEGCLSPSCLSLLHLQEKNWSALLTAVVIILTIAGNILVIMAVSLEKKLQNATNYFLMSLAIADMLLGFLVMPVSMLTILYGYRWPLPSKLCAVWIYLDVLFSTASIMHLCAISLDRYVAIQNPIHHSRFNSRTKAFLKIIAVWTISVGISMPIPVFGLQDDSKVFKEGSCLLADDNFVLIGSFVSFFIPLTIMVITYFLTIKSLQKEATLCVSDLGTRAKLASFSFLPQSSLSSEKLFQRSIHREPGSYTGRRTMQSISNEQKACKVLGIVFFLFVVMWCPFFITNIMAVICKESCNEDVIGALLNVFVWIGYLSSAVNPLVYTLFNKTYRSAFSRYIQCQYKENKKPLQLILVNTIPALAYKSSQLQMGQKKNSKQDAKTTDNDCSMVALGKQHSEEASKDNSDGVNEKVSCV
Outline: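 Radioligand competition binding with scintillation counting; nonspecific binding defined by excess unlabelled ligand. Data as percent inhibition of control specific binding. IC50 by Hill-equation fit of competition curves; Ki by Cheng-Prusoff, with radioligand Kd from Scatchard plot.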

[4] = target: dopaminergic receptors D2 (Homo sapiens, UniProt P14416); assay: Radioligand binding assay, dopaminergic D2 receptors; conditions: binding assay, test compound 1×10^−6 M
dopaminergic receptors D2, sequence (P14416 whole entry): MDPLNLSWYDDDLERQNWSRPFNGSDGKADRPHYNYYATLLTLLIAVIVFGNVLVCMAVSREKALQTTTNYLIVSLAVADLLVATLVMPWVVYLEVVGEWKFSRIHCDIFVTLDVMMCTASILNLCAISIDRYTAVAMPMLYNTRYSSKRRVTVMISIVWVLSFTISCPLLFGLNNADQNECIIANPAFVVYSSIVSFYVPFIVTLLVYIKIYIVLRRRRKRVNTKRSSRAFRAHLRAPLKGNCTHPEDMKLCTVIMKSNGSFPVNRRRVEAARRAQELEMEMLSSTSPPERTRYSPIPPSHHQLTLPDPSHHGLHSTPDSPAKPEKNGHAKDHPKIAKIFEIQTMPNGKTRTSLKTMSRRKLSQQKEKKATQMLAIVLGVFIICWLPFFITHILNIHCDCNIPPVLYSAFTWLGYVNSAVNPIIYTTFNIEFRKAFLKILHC
Outline: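 Competition binding with scintillation counting of bound radioligand; specific binding taken as total minus non-specific binding measured with excess unlabelled ligand. IC50 obtained by Hill-equation non-linear regression of replicate-mean curves, then converted to Ki via Cheng–Prusoff using radioligand concentration and Scatchard-derived KD.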

5-HT7 receptor = target: T3, 5-HT7 receptor (Homo sapiens, UniProt P34969); assay: Radioligand binding assay, serotoninergic 5-HT7 receptors; conditions: binding assay result in %, Table 5a;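 note: test compound at 1 µM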
T3 construct: purchased PerkinElmer
T3 sequence (P34969 whole entry): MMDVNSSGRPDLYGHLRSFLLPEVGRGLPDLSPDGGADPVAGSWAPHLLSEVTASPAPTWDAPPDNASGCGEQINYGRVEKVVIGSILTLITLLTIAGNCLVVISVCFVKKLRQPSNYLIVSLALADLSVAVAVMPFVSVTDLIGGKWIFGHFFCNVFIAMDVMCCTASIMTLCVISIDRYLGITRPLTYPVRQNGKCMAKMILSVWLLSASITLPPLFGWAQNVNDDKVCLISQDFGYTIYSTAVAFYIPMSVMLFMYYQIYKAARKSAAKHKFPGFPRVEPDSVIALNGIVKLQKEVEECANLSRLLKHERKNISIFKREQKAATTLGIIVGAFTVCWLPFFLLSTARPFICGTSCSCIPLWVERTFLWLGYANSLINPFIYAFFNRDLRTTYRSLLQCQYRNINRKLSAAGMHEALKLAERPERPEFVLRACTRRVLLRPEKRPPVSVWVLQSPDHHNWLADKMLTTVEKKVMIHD
Outline: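 Competition binding at human 5-HT7 receptors with a radioligand, detected by scintillation counting; non-specific binding was defined with excess unlabelled ligand. IC50 came from Hill-equation fits of competition curves, and Ki from Cheng–Prusoff using radioligand concentration and Scatchard-derived KD.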

5-HT6 receptor = target: T4, 5-HT6 receptor (Homo sapiens, UniProt P50406); assay: Radioligand binding assay, serotoninergic 5-HT6 receptors; conditions: binding assay result in %, Table 5a;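 note: test compound at 1 µM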
T4 construct: purchased PerkinElmer
T4 sequence (P50406 whole entry): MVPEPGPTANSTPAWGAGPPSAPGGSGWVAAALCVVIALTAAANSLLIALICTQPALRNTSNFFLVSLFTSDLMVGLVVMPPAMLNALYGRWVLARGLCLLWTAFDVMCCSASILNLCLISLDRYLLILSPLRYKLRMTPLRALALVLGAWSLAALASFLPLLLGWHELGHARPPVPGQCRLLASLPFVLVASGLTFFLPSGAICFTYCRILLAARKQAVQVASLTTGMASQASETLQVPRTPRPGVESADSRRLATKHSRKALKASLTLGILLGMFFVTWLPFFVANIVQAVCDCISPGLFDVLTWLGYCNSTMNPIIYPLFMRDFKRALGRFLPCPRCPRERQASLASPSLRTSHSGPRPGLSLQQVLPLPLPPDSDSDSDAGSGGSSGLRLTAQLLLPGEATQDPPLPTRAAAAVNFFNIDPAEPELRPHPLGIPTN
Outline: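 Values are Ki from Cheng–Prusoff, taking IC50 from Hill nonlinear regression of competition curves and KD from a Scatchard plot. Specific binding was total minus binding with excess unlabelled ligand. Radioligand displacement was detected by scintillation counting, and data were also reported as percent of control specific binding.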

[5] = target: T5, serotonin transporter (SERT) (Homo sapiens, UniProt P31645); assay: Radioligand binding assay, serotonin transporter (SERT); conditions: binding assay, test compound 1×10^−6 M
T5 construct: expressed in transfected cells; host or cells: CHO cells
T5 sequence (P31645 whole entry): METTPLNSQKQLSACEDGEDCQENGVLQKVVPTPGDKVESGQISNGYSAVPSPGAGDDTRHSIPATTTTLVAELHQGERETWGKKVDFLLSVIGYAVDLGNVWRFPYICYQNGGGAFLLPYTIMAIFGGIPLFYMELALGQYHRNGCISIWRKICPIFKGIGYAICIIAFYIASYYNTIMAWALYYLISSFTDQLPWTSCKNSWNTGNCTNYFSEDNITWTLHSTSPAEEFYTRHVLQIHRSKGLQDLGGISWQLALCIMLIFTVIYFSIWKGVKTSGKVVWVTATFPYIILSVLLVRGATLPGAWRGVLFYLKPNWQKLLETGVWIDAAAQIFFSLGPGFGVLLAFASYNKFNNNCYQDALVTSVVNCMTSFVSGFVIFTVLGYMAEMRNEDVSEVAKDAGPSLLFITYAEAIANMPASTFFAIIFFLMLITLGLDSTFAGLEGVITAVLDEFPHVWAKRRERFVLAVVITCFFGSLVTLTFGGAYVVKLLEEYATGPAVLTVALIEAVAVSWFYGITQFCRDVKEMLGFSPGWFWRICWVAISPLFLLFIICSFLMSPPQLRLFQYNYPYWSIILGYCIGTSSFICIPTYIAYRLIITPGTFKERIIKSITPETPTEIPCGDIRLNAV
Outline: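 Radioligand competition binding with scintillation detection; specific binding is total minus binding under excess unlabelled ligand. Reported as % of control specific binding or % inhibition; IC50 from Hill-equation non-linear regression of competition curves, and Ki via Cheng-Prusoff using radioligand concentration and Scatchard-derived KD.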

Row | Structure (SMILES) | α1 [%] [1] [%] | inhibition at 1 µM [2] [%] | inhibition at 1 µM [3] [%] | inhibition at 1 µM (5-HT2A receptor) [%] | inhibition at 1 µM [4] [%] | inhibition at 1 µM (5-HT7 receptor) [%] | inhibition at 1 µM (5-HT6 receptor) [%] | inhibition at 1 µM [5] [%] | D3 [%] [2] [%] | 5-HT1A [%] [3] [%] | 5-HT2A [%] (5-HT2A receptor) | D2 [%] [4] [%] | 5-HT7 [%] (5-HT7 receptor) | 5-HT6 [%] (5-HT6 receptor) | SERT [%] [5] [%]
1 | O=S(=O)(NCC1CN(CCOc2cccc3c2OCCO3)C1)c1cccc2ccccc12 [Compound 176, N-[[1-[2-(2,3-Dihydro-1,4-benzodioxin-5-yloxy)ethyl]azetidin-3-yl]methyl]-naphthalene-1-sulphonamide] | 51 | 8 | 98 | 35 | 21 | 87 | 14 | -2 |  |  |  |  |  |  | 
2 | O=S(=O)(NC1CCN(CCCc2noc3cc(F)ccc23)C1)c1ccc2c(c1)OCC2 (stereo not drawn) [Compound 24, N-[1-[3-(6-Fluoro-1,2-benzoxazol-3-yl)propyl]pyrrolidin-3-yl]-2,3-dihydrobenzofuran-6-sulphonamide] | 101 | 52 | 19 | 95 | 94 | 82 | 78 | -10 |  |  |  |  |  |  | 
3 | O=S(=O)(NCC1CCN(CCOc2ccc3cc[nH]c3c2)CC1)c1cccc2ccccc12 [Compound 71, N-[[1-[2-(1H-Indol-6-yloxy)ethyl]-4-piperidine]methyl]naphthalene-1-sulphonamide] | 36 |  |  |  |  |  |  |  | −1 | 28 | 26 | 27 | 31 | 80 | 49
4 | Cn1ccc2cc(S(=O)(=O)NCC3CN(CCOc4cccc5c4OCCO5)C3)ccc21 [Compound 187, N-[[1-[2-(2,3-Dihydro-1,4-benzodioxin-5-yloxy)ethyl]azetidin-3-yl]methyl]-1-methyl-indole-5-sulphonamide] | 88 | 48 | 78 | 93 | 56 | 98 | 44 | 69 |  |  |  |  |  |  | 
5 | O=S(=O)(NC1CCN(CCOc2cccc3c2OCCO3)CC1)c1ccccc1 [Compound 117, N-[1-[2-(2,3-Dihydro-1,4-benzodioxan-8-yloxy)ethyl]-4-piperidine]-benzenesulphonamide] | 53 |  |  |  |  |  |  |  | 29 | 76 | 86 | 24 | 93 | 34 | 33
6 | O=S(=O)(NC1CCN(CCCc2noc3cc(F)ccc23)CC1)c1ccc2ccccc2c1 [Compound 35, N-[1-[3-(6-Fluoro-1,2-benzoxazol-3-yl)propyl]-4-piperidine]-naphthalene-2-sulphonamide] | 99 |  |  |  |  |  |  |  | 56 | 28 | 91 | 77 | 98 | 97 | 29
7 | Cc1cccc(S(=O)(=O)NC2CCN(CCOc3cccc4[nH]ccc34)C2)c1 (stereo not drawn) [Compound 52, N-[1-[2-(1H-Indol-4-yloxy)ethyl]pyrrolidin-3-yl]-3-methylbenzene-sulphonamide] | 81 | 106 | 90 | 89 | 77 | 90 | 41 | 38 |  |  |  |  |  |  | 
8 | Cn1ccc2cc(S(=O)(=O)NCC3CN(CCOc4cccc5ccccc45)C3)ccc21 [Compound 169, 1-Methyl-N-[[1-[2-(1-naphthyloxy)ethyl]azetidin-3-yl]methyl]indole-5-sulphonamide] | 74 | 100 | 84 | 69 | 84 | 93 | 100 | 75 |  |  |  |  |  |  | 
9 | Cc1c(S(=O)(=O)NC2CCN(CCCc3noc4cc(F)ccc34)CC2)sc2ccc(Cl)cc12 [Compound 326, 5-Chloro-N-[1-[3-(6-fluoro-1,2-benzoxazol-3-yl)propyl]-4-piperidyl]-3-methyl-benzothiophene-2-sulphonamide] | 70 | 61 | -1 | 97 | 86 | 91 | 83 | 10 |  |  |  |  |  |  | 
10 | O=S(=O)(NCC1CN(CCOc2cccc3c2OCCO3)C1)c1ccc(F)cc1 [Compound 182, N-[[1-[2-(2,3-Dihydro-1,4-benzodioxin-5-yloxy)ethyl]azetidin-3-yl]methyl]-4-fluoro-benzenesulphonamide] | 78 | 45 | 63 | 61 | 33 | 95 | 31 | -7 |  |  |  |  |  |  | 
11 | Cn1ccc2cc(S(=O)(=O)NCC3CCN(CCOc4cccc5ccccc45)C3)ccc21 (stereo not drawn) [Compound 274, 1-Methyl-N-[[1-[2-(1-naphthyloxy)ethyl]pyrrolidin-3-yl]methyl]indole-5-sulphonamide] | 41 | 81 | 77 | 89 | 62 | 86 | 97 | 109 |  |  |  |  |  |  | 
12 | O=S(=O)(NCC1CCN(CCOc2nsc3ccccc23)C1)c1cccc(O)c1 (stereo not drawn) [Compound 43, N-[[1-[2-(1,2-Benzothiazol-3-yloxy)ethyl]pyrrolidin-3-yl]methyl]-3-hydroxy-benzenesulphonamide] | 68 | 29 | 83 | 81 | 55 | 71 | 87 | -7 |  |  |  |  |  |  | 
13 | O=S(=O)(NCC1CCN(CCOc2cccc3[nH]ccc23)CC1)c1ccc2ccccc2c1 [Compound 67, N-[[1-[2-(1H-Indol-4-yloxy)ethyl]-4-piperidine]methyl]naphthalene-2-sulphonamide] | 91 |  |  |  |  |  |  |  | 94 | 76 | 80 | 57 | 79 | 87 | 38
14 | O=S(=O)(NC1CN(CCOc2cccc3c2OCCO3)C1)c1ccccc1 [Compound 88, N-[1-[2-(2,3-Dihydro-1,4-benzodioxan-8-yloxy)ethyl]azetidin-3-yl]-benzenesulphonamide] | −23 |  |  |  |  |  |  |  | −2 | 96 | 34 | −5 | 84 | 13 | −13
15 | O=S(=O)(NCC1CN(CCOc2cccc3c2OCCO3)C1)c1ccc(Cl)s1 [Compound 192, 5-Chloro-N-[[1-[2-(2,3-dihydro-1,4-benzodioxin-5-yloxy)ethyl]azetidin-3-yl]methyl]thiophene-2-sulphonamide] | 88 | 70 | 79 | 86 | 42 | 97 | 30 | 38 |  |  |  |  |  |  | 
